Assays:
Test in all cases: selective drug sensitivity score (sDSS, relative to normal bone marrow) (sDSS (score)); higher = more potent and effective on the cell line relative to normal bone marrow cells
Settings in all cases: 72 h
380 = test system: 380
ALL-PO = test system: ALL-PO
COG-LL-317 = test system: COG-LL-317
COG-LL-332h = test system: COG-LL-332h
COG-LL-394h = test system: COG-LL-394h
COG-LL-402h = test system: COG-LL-402h
DND-41 = test system: DND-41
HAL-01 = test system: HAL-01
HPB-ALL = test system: HPB-ALL
KASUMI-10 = test system: KASUMI-10
KASUMI-9 = test system: KASUMI-9
LC4-1 = test system: LC4-1
MHH-CALL-2 = test system: MHH-CALL-2
MHH-CALL-3 = test system: MHH-CALL-3
MOLT-16 = test system: MOLT-16
P30-OHKUBO = test system: P30-OHKUBO
PEER = test system: PEER
RPMI-8402 = test system: RPMI-8402
TANOUE = test system: TANOUE
TMD5 = test system: TMD5
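Also: ALL cell lines in 384-well plates, five doses spanning 10,000-fold, each plate scaled between vehicle and 100 µmol/L benzalkonium chloride controls, sDSS an adapted area-under-curve metric.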

| SMILES | selective drug sensitivity score 380 | selective drug sensitivity score (ALL-PO) | selective drug sensitivity score (COG-LL-317) | selective drug sensitivity score (COG-LL-332h) | selective drug sensitivity score (COG-LL-394h) | selective drug sensitivity score (COG-LL-402h) | selective drug sensitivity score (DND-41) | selective drug sensitivity score (HAL-01) | selective drug sensitivity score (HPB-ALL) | selective drug sensitivity score (KASUMI-10) | selective drug sensitivity score (KASUMI-9) | selective drug sensitivity score (LC4-1) | selective drug sensitivity score (MHH-CALL-2) | selective drug sensitivity score (MHH-CALL-3) | selective drug sensitivity score (MOLT-16) | selective drug sensitivity score (P30-OHKUBO) | selective drug sensitivity score (PEER) | selective drug sensitivity score (RPMI-8402) | selective drug sensitivity score (TANOUE) | selective drug sensitivity score (TMD5) |
| --- | --- | --- | --- | --- | --- | --- | --- | --- | --- | --- | --- | --- | --- | --- | --- | --- | --- | --- | --- | --- |
| Cc1cc(F)c(C(=O)Nc2cccc(-c3nncn3C(C)C)n2)cc1-n1cnc(C2CC2)c1 [Selonsertib] (top concentration 1000 nM) | 1 | 0 | 0 | 0 | 0 | 0 | 0 | 6.6 | 0 | 0 | 1.2 | 0 | 11.5 | 0 | 0 | 0.9 | 0 | 0 | 0 | 6.7 |
| Nc1nc2cc(-c3ccc4ncc(C(=O)N5CCOCC5)n4c3)ccc2o1 [Serabelisib] (top concentration 10000 nM) | -0.44 | 4.96 | -1.54 | -1.14 | -1.54 | -0.14 | 0.66 | -1.54 | 0.66 | -1.54 | 2.56 | 0.86 | 3.06 | -1.54 | -0.94 | 1.46 | -1.04 | -1.54 | -1.54 | -1.54 |
| CCC(C)(C)C(=O)O[C@H]1C[C@@H](C)C=C2C=C[C@H](C)[C@H](CC[C@@H]3C[C@@H](O)CC(=O)O3)[C@H]21 [Simvastatin] (top concentration 10000 nM) | 4.88 | -0.72 | 6.68 | 0.68 | -0.72 | 0.08 | -0.72 | 3.08 | 0.38 | -0.72 | 4.18 | 2.18 | 9.58 | 6.08 | 2.18 | 1.28 | 1.48 | 2.08 | -0.72 | 5.78 |
| C=CCN(/C=C1/C(=O)O[C@H](COC)[C@@]2(C)C1=C(O)C(=O)C1=C2[C@H](OC(C)=O)C[C@]2(C)C(=O)CC[C@@H]12)CC=C [Sonolisib] (top concentration 10000 nM) | -0.56 | 2.44 | -0.06 | -0.66 | -0.66 | -0.76 | 1.64 | 1.94 | -0.76 | -0.76 | 0.14 | -0.56 | 0.34 | -0.76 | -0.76 | -0.16 | -0.76 | -0.76 | -0.76 | -0.76 |
| CC(C)n1cnc2c(NCCc3ccc(O)cc3)nc(-c3csc4ccccc34)nc21 [StemRegenin_1] (top concentration 10000 nM) | -1.8 | 1.9 | -0.3 | 0.8 | -1.8 | -1.8 | 4.5 | 2.4 | 6.4 | -1.8 | -0.5 | -0.1 | 2.5 | -1.8 | 4.4 | 2.2 | 1.5 | -0.7 | 4.2 | -1.8 |
| CC(C)(O)CC(=O)NCCn1ccc2ncnc(Nc3ccc(Oc4cccc(C(F)(F)F)c4)c(Cl)c3)c21 [TAK-285] (top concentration 2500 nM) | 0 | 0 | 0 | 0 | 0 | 0 | 0 | 3.1 | 0 | 0 | 3.3 | 0 | 1.6 | 0 | 0 | 0 | 0 | 0 | 0 | 3.1 |
| Nc1nc(N)c2nc(-c3cccc(O)c3)c(-c3cccc(O)c3)nc2n1 [TG100-115] (top concentration 10000 nM) | 2.1 | -0.2 | -0.1 | 0.2 | -0.4 | -0.4 | 0.1 | 3.2 | -0.4 | 0.1 | 1.6 | 0.1 | 5.2 | -0.4 | 1.1 | 3.6 | -0.2 | 0 | -0.4 | 3 |
| CC/C(=C(\c1ccccc1)c1ccc(OCCN(C)C)cc1)c1ccccc1 [Tamoxifen] (top concentration 10000 nM) | 0.02 | 2.72 | 1.42 | 1.32 | 2.32 | 1.22 | 3.72 | 1.82 | 6.02 | -3.28 | 1.52 | 4.12 | 0.82 | -2.48 | 2.82 | 3.32 | 1.02 | 0.42 | -2.28 | -0.48 |
| COc1cc2c(N3CCN(C(=O)Nc4ccc(OC(C)C)cc4)CC3)ncnc2cc1OCCCN1CCCCC1 [Tandutinib] (top concentration 1000 nM) | 0 | 3.1 | 0.7 | 0 | 0.3 | 0 | 2.3 | 0 | 0 | 4.5 | 0 | 0 | 0 | 0 | 0 | 0 | 0 | 0 | 0 | 0 |
| Cn1nnc2c(C(N)=O)ncn2c1=O [Temozolomide] (top concentration 100000 nM) | 5.66 | -0.04 | -0.04 | -0.04 | -0.04 | -0.04 | -0.04 | -0.04 | -0.04 | -0.04 | 6.16 | -0.04 | 3.36 | 4.76 | 5.16 | 3.36 | -0.04 | 1.46 | -0.04 | -0.04 |
| CN1CCC(COc2cnc(-c3cccc(Cn4nc(-c5cccc(C#N)c5)ccc4=O)c3)nc2)CC1 [Tepotinib] (top concentration 1000 nM) | -0.08 | -0.08 | 0.52 | -0.08 | -0.08 | -0.08 | -0.08 | -0.08 | -0.08 | -0.08 | -0.08 | 4.62 | -0.08 | -0.08 | -0.08 | -0.08 | 0.02 | -0.08 | -0.08 | -0.08 |
| NC(=S)N/N=C/c1ncccc1N [Triapine] (top concentration 10000 nM) | 5.88 | 2.28 | 0.88 | 2.78 | 0.88 | 9.28 | 7.38 | 2.18 | 1.58 | 6.88 | 3.98 | 1.78 | 3.48 | 2.08 | 4.68 | 2.88 | 2.08 | 2.38 | -1.32 | 2.28 |
| NC(=O)c1cccc(-c2cccc(OC(=O)NC3CCCCC3)c2)c1 [URB597] (top concentration 1000 nM) | 2.44 | -0.46 | -0.46 | -0.46 | -0.46 | -0.46 | -0.26 | 0.64 | -0.26 | -0.46 | 0.04 | 0.44 | 0.54 | -0.46 | 2.34 | -0.46 | -0.46 | -0.46 | 2.84 | -0.46 |
| COc1cc2/c(=N/c3ccc(Br)cc3F)nc[nH]c2cc1OCC1CCN(C)CC1 [Vandetanib] (top concentration 1000 nM) | -0.22 | -0.22 | -0.22 | 0.28 | -0.22 | 0.18 | -0.22 | 1.68 | -0.22 | -0.22 | -0.22 | -0.22 | 4.38 | 0.78 | -0.22 | 0.38 | 1.38 | -0.22 | -0.22 | 5.38 |
| COc1cccc(-c2ccc(NC(=O)C3=C(C(=O)O)CCC3)c(F)c2)c1 [Vidofludimus] (top concentration 10000 nM) | 5 | 2.6 | 4.3 | 4.9 | 0 | 0 | 5.3 | 2 | 3.2 | 0.5 | 2.7 | 6.1 | 3 | 0.7 | 5.4 | 3 | 5.1 | 3.9 | 3 | 0 |
| CC[C@]12C=CCN3CC[C@@]4(c5cc([C@@]6(C(=O)OC)C[C@@H]7C[C@@H](C(C)(F)F)CN(Cc8c6[nH]c6ccccc86)C7)c(OC)cc5N(C)[C@H]4[C@@](O)(C(=O)OC)[C@@H]1OC(C)=O)[C@@H]32 [Vinflunine] (top concentration 1000 nM) | 5.98 | 1.68 | 3.88 | 3.78 | 2.38 | 2.78 | 0.18 | 1.38 | 6.18 | 4.08 | 6.78 | 4.48 | 2.88 | -0.12 | 3.98 | 3.68 | 5.08 | 4.78 | -1.32 | 0.28 |
